Experimental data published in patent US20260070921A1, “COMPOUND, ENDOPLASMIC RETICULUM STRESS INHIBITOR, PHARMACEUTICAL PRODUCT, OPHTHALMIC AGENT, EYE DROPS, COMPOSITION, AND METHOD FOR PRODUCING COMPOUND” (KYOTO UNIVERSITY, priority 2022, published 2026).

Key:
[1] = test system: C57BL6J mice; assay: Lens-induced myopia in mice, eye drops; assay type: in vivo; details: −30 D lens 3 weeks, eye drop once a day
Procedure: A −30 diopter (unit of refractive index: D) lens was attached to the right eye of 3-week-old male C57BL6J mice, while only a lens frame was attached to the left eye, which served as a control eye. The lenses were worn for three weeks, and the refractive index and axial length of eyes were measured before and after attachment of the lenses. Concurrently with myopia induction, an eye drop, which is a 0.025 solution of X441A in PBS, was administered by instillation once a day every day. PBS was administered by eye drop to the control group (group administered with PBS). After 3 weeks of myopia induction and eye drop administration, the eyeballs were enucleated from the mice, and the sclera was isolated. Then, western blotting was performed to analyze the expression levels of p62, Atg5, and Atg12 in each group.

[2] = Solubility; assay type: physicochemical; details: in DMSO

NS(=O)(=O)c1ccc(Nc2ccn3c(n2)nc(=O)c2sc4cc(F)ccc4c23)cc1 [compound 1]
Axial length elongation of eyes [1]: such changes were not observed
Myopic shift in refractive index [1]: such changes were not observed
Solubility [2]: readily soluble
